In patent US9233092B2, “Compositions and methods for inhibiting gastric acid secretion using derivatives of small dicarboxylic acids in combination with PPI” (Vecta, Ltd., priority 2006, dated 2016):
“Also recorded” adds a separate entry of the source.

Assays:
gastric acid secretion [1] = assay: Stimulation of gastric acid secretion after oral administration, pylorus ligated 60 min after dosing, acid output by NaOH titration; assay type: in vivo; conditions: rats, per os, SA 14.88 mg/kg, mS 16.65 mg/kg, dmS 17.65 mg/kg, gastric juice collected 30 min later
Description: Rats were administered (per os) with succinic acid (SA, 14.88 mg/kg), monomethylester of succinic acid (mS, 16.65 mg/kg) or dimethyl ester of succinic acid (dmS, 17.65 mg/kg) using gavage. 60 minutes later the rats were anesthetized with ketamine/domitor and the pylorus was ligated. Following additional 30 min, gastric juice was collected from the gastric lumen. Acid output was determined by titration with NaOH. Total acid output expressed in mEq HCl was calculated by multiplying the sample volume by the acid concentration. Results are expressed as means±SEM of 8 animals from each experimental group.

gastric acid secretion [2] = assay: Conscious pylorus-ligated rats: effect of succinates on the activity of pantoprazole on gastric acid secretion; assay type: in vivo; conditions: oral gavage, succinate (SA 14.88 mg/kg or dmS 17.65 mg/kg) given 30 min prior to pantoprazole, FIG. 2
Description: To further study the delayed or sustained enhancement effect of dimethyl ester of succinic acid on the activity of pantoprazole, an experimental model of conscious pylorus-ligated rats was used. This experimental model permits the analysis of the effect of drugs on gastric acid secretion in conscious animals and avoids the effect of anesthesia on gastric acid secretion. Pantoprazole alone ([…]) or in combination with succinic acid (SA, 14.88 mg/kg) or dimethyl ester of succinic acid (dmS, 17.65 mg/kg) were administered by oral gavage. The succinates were administered 30 min prior to the administration of pantoprazole in order to test the sustained or delayed effect of dimethyl ester of succinic acid compared to the non-derivatized succinic acid. 120 min post succinates administration, the animals were anesthetized using anesthetic gas machine for a short period (5 minutes) that is sufficient to perform the pylorus ligation procedure and to close the abdomen. The animals were then placed back into its cage for additional 110 min after which the animals were sacrificed. The ligature was placed around the esophagus, the stomach removed and gastric content was collected. Following centrifugation, the gastric output and the pH of the gastric juice samples was determined. Data is presented as mean±SEM of gastric output. The number of animals is 6-7 in each experimental group.

gastric acid output = conditions: humans; Teyssen et al., J. Clin Invest. 1999; cited from earlier work

SMILES	gastric acid output (total acid output) (gastric acid secretion [1]; FIG. 1)	gastric acid output (total acid output) (gastric acid secretion [1]; FIG. 1, listed as succinic acid dimethyl ester)	enhancement of the effect of pantoprazole (PPI) on gastric acid output (gastric acid secretion [2])	stimulation of gastric acid output (gastric acid output)
COC(=O)CCC(=O)OC [dmS, dimethyl ester of succinic acid]	effective in enhancing gastric output	capable of enhancing gastric acid output even after 60 minutes from dosing	capable of enhancing the activity of pantoprazole on gastric acid secretion; also recorded: capable of enhancing the effect of PPI on gastric acid output	
COC(=O)CCC(=O)O [mS, monomethylester of succinic acid]	effective in enhancing gastric output			
O=C(O)/C=C\C(=O)O [Maleic acid]				powerful stimulants of gastric acid output
O=C(O)CCC(=O)O [SA, succinic acid, reference compound]	did not show an effect		only dimethyl ester of succinic acid was capable of enhancing the effect of PPI	powerful stimulants of gastric acid output
